Legend:
[1] = near-infrared absorption spectrum in ethanol solution; type: physicochemical
Experimental: FIG. 3 is a near-infrared absorption spectrum of compound I-1 and compound I-2 in Example 4 in ethanol solution.
(§1) To a single-necked flask is added 300 ml of absolute ethyl alcohol, 6.47 g of 3-bromomethyl phenylboronate indole quaternary ammonium salt, 2-chloro-3-hydroxymethylene cyclohexene carboxaldehyde, and 0.15 g of sodium acetate. The mixture is reacted at 70° C. for 1 h, and spin dried to remove the solvent. The resulting residue is separated by column chromatography, to obtain fluorescent compounds I-1 and I-2. The fluorescent compound I-1 has a maximum fluorescence emission peak at 808 nm when excited at a wavelength of […], and has a near infrared absorption peak in ethanol solution at 785 nm. The fluorescent compound I-2 has a maximum fluorescence emission peak at 811 nm when excited at a wavelength of […], and has a near infrared absorption peak in ethanol solution at 788 nm.

[2] = fluorescence spectrum at room temperature; type: physicochemical; conditions: excited at a wavelength
Experimental: as §1

Row | Structure (SMILES) | near infrared absorption peak [1] [nm] | maximum fluorescence emission peak [2] [nm]
1 | CC1(C)C(/C=C/C2=C(Cl)C(=C/C=C3/N(Cc4cccc(B(O)O)c4)c4ccccc4C3(C)C)/CCC2)=[N+](Cc2cccc(B(O)O)c2)c2ccccc21 [Compound I-1] | 785 | 808
2 | CC1(C)C(/C=C/C2=C(Cl)C(=C/C=C3/N(Cc4ccccc4)c4ccccc4C3(C)C)/CCC2)=[N+](Cc2cccc(B(O)O)c2)c2ccccc21 [Compound I-2] | 788 | 811

Source: patent US20210388005A1, “FLUORESCENT COMPOUND AND PREPARATION METHOD AND USE FOR THE SAME” (NEUBORON MEDTECH LTD., priority 2019, published 2021)
